Entries after “also recorded” stand apart in the source; their conditions may differ.
Legend:
Solubility in water = format: physicochemical
[1] = test system: all microorganisms tested; test: Broth microdilution MIC, statement for all microorganisms tested; format: cell-based
Experimental: Antibacterial assays were conducted in vitro using the broth microdilution method. The minimum inhibitory concentration (MIC) is the smallest concentration of antibacterial agent at which bacterial growth is not observed. MIC values were determined for 4 Gram-positive bacteria (methicillin-resistant Staphylococcus aureus ATCC 43300 (MRSA), Bacillus subtilis ATCC 6633, Kocuria rhizophila 9341, Staphylococcus epidermidis ATCC 12228), 3 Gram-negative bacteria (Klebsiella pneumoniae ATCC 4532, Pseudomonas aeruginosa ATCC 27853, Escherichia coli ATCC 8739) and the fungal strain, Candida albicans ATCC 10231. Frozen stocks of bacteria were incubated on Muller Hinton agar plates for 24 h at 37 °C. From this culture, a bacterial suspension of 1 × 10^6 colony forming units CFU/mL was prepared in MHB (pH = 7.3). Two dilutions of pure surfactants and their binary mixtures were prepared in MH broth to obtain a final concentration ranging from 4 to 454 μM in the microtiter plates.
Then, 10 μL of nutrient broth culture of each microorganism was added to achieve a final density of ca. 5 × 10^5 CFU/mL. The cultures were incubated for 24 h at 37 °C. Every assay was repeated three times.

Question: What does the source list for `CCCCCCCCCCCC(=O)N[C@@H](CCCCNC(C)=O)C(=O)O` [C12C3L, N^α-lauroyl-N^εacetyl lysine]?
Answer: Solubility in water (Solubility in water): too low to determine a CMC; also recorded: not soluble in water; MIC ([1]; K. rhizophila, B. subtilis, S. epidermidis, S. aureus, K. pneumoniae, E. coli, P. aeruginosa, C. albicans, higher concentrations precipitated, read-out: MIC for all microorganisms tested): > 113 µM; Antibacterial activity (in words) ([1]; tested microorganisms): did not show activity
